Laboratory results published in patent US20240076285A1, “COMPOUNDS AND COMPOSITIONS FOR TREATING CONDITIONS ASSOCIATED WITH STING ACTIVITY” (IFM Due, Inc., priority 2020, published 2024).

Molecular target: T1, hSTING (Homo sapiens, UniProt Q86WV6, G230A/H232R/R293Q/R71H)
T1 construct: host or cells: THP1-Dual KO-IFNAR2 cells
Test: STING reporter assay in THP1-Dual KO-IFNAR2 cells (2'3'cGAMP stimulation, luciferase reporter)
Assay type: cell-based
Settings: 15 μM 2'3'cGAMP, 24 h, class symbols
Experimental: STING pathway activation by the compounds described herein was measured using THP1-Dual™ cells (KO-IFNAR2).
THP1-Dual™ KO-IFNAR2 Cells (obtained from invivogen) were maintained in RPMI, 10% FCS, 5 ml P/S, 2 mM L-glut, 10 mM Hepes, and 1 mM sodium pyruvate. Compounds were spotted in empty 384 well tissue culture plates (Greiner 781182) by Echo for a final concentration of 0.0017-100 μM. Cells were plated into the TC plates at 40 μL per well, 2×10E6 cells/mL. For activation with STING ligand, 2′3′cGAMP (MW 718.38, obtained from Invivogen), was prepared in Optimem media.
The following solutions were prepared for each 1×384 plate: • Solution A: 2 mL Optimem with one of the following stimuli: • 60 μL of 10 mM 2′3′cGAMP→150 μM stock • Solution B: 2 mL Optimem with 60 μL Lipofectamine 2000→Incubate 5 min at RT
2 mL of solution A and 2 ml Solution B was mixed and incubated for 20 min at room temperature (RT). 20 μL of transfection solution (A+B) was added on top of the plated cells, with a final 2′3′cGAMP concentration of 15 μM. The plates were then centrifuged immediately at 340 g for 1 minute, after which they were incubated at 37° C., 5% CO2, >98% humidity for 24 h. Luciferase reporter activity was then measured. EC50 values were calculated by using standard methods known in the art.
Luciferase reporter assay: 10 μL of supernatant from the assay was transferred to white 384-plate with flat bottom and squared wells. One pouch of QUANTI-Luc™ Plus was dissolved in 25 mL of water. 100 μL of QLC Stabilizer per 25 mL of QUANTI-Luc™ Plus solution was added. 50 μL of QUANTI-Luc™ Plus/QLC solution per well was then added. Luminescence was measured on a Platereader (e.g., Spectramax I3X (Molecular Devices GF3637001)).
Luciferase reporter activity was then measured. EC50 values were calculated by using standard methods known in the art.

T1 sequence (Q86WV6 whole entry R71H/G230A/H232R/R293Q): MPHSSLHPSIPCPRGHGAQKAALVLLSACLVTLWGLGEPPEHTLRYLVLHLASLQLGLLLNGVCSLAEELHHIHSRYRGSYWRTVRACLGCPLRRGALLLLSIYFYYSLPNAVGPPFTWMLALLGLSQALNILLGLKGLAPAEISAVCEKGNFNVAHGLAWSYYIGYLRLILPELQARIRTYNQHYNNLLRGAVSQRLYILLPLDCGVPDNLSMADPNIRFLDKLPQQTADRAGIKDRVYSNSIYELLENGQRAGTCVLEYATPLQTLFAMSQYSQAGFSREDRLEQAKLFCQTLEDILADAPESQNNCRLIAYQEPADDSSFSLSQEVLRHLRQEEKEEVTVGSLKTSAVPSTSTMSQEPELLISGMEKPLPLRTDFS

N#Cc1cc(Nc2ccc3c(c2)CC(=O)N3)cc(Nc2ccc3cc[nH]c3c2)n1 [Compound 101, 6-[(1H-indol-6-yl)amino]-4-[(2-oxo-2,3-dihydro-1H-indol-5-yl)amino]pyridine-2-carbonitrile] and N#Cc1cc(Nc2ccc3c(c2)C(=O)NC3)cc(Nc2ccc3cc[nH]c3c2)n1 [Compound 123, 6-[(1H-indol-6-yl)amino]-4-[(3-oxo-2,3-dihydro-1H-isoindol-5-yl)amino]pyridine-2-carbonitrile] fall in the same range of EC50: 5000 to 100000 nM for the first, 5000 to 100000 nM for the second.

N#Cc1cc(Nc2ccc(C(F)(F)F)c(F)c2)cc(Nc2ccc3cc[nH]c3c2)n1 [Compound 104, 4-{[3-fluoro-4-(trifluoromethyl)phenyl]amino}-6-[(1H-indol-6-yl)amino]pyridine-2-carbonitrile] and N#Cc1cc(Nc2ccc(C(F)(F)F)c(Cl)c2)cc(Nc2ccc3cc[nH]c3c2)n1 [Compound 133, 4-{[3-chloro-4-(trifluoromethyl)phenyl]amino}-6-[(1H-indol-6-yl)amino]pyridine-2-carbonitrile] fall in the same range of EC50: 200 to 1000 nM for the first, 200 to 1000 nM for the second.

Cc1nc2ccc(Nc3cc(C#N)nc(Nc4ccc5cc[nH]c5c4)c3)cc2s1 [Compound 105, 6-[(1H-indol-6-yl)amino]-4-[(2-methyl-1,3-benzothiazol-6-yl)amino]pyridine-2-carbonitrile] and Cc1nc2cc(Nc3cc(C#N)nc(Nc4ccc5cc[nH]c5c4)c3)ccc2s1 [Compound 107, 6-[(1H-indol-6-yl)amino]-4-[(2-methyl-1,3-benzothiazol-5-yl)amino]pyridine-2-carbonitrile] fall in the same range of EC50: 1000 to 5000 nM for the first, 1000 to 5000 nM for the second.

Compared with Cc1nn(C)c2ccc(Nc3cc(C#N)nc(Nc4ccc5cc[nH]c5c4)c3)cc12 [Compound 108, 4-[(1,3-dimethyl-1H-indazol-5-yl)amino]-6-[(1H-indol-6-yl)amino]pyridine-2-carbonitrile], N#Cc1cc(Nc2ccc(F)c(F)c2)cc(Nc2ccc3cc[nH]c3c2)n1 [Compound 116, 4-[(3,4-difluorophenyl)amino]-6-[(1H-indol-6-yl)amino]pyridine-2-carbonitrile] is lower in EC50: 1000 to 5000 nM for the first, 200 to 1000 nM for the second. The second is the more potent here.

N#Cc1cc(Nc2cncc(Cl)c2)cc(Nc2ccc3cc[nH]c3c2)n1 [Compound 109, 4-[(5-chloropyridin-3-yl)amino]-6-[(1H-indol-6-yl)amino]pyridine-2-carbonitrile] and N#Cc1cc(Nc2cncc(F)c2)cc(Nc2ccc3cc[nH]c3c2)n1 [Compound 129, 4-[(5-fluoropyridin-3-yl)amino]-6-[(1H-indol-6-yl)amino]pyridine-2-carbonitrile] fall in the same range of EC50: 1000 to 5000 nM for the first, 1000 to 5000 nM for the second.

N#Cc1cc(Nc2cc(F)cc(C(F)(F)F)c2)cc(Nc2ccc3cc[nH]c3c2)n1 [Compound 110, 4-{[3-fluoro-5-(trifluoromethyl)phenyl]amino} 6-[(1H-indol-6-yl)amino]pyridine-2-carbonitrile] and N#Cc1cc(Nc2cc(Cl)cc(OC(F)(F)F)c2)cc(Nc2ccc3cc[nH]c3c2)n1 [Compound 134, 4-{[3-chloro-5-(trifluoromethoxy)phenyl]amino}-6-[(1H-indol-6-yl)amino]pyridine-2-carbonitrile] fall in the same range of EC50: 200 to 1000 nM for the first, 200 to 1000 nM for the second.

CCc1ccc(Nc2cc(C#N)nc(Nc3ccc4cc[nH]c4c3)c2)cn1 [Compound 111, 4-[(6-ethylpyridin-3-yl)amino]-6-[(1H-indol-6-yl)amino]pyridine-2-carbonitrile] and COc1ccc(Nc2cc(C#N)nc(Nc3ccc4cc[nH]c4c3)c2)cn1 [Compound 131, 6-[(1H-indol-6-yl)amino]-4-[(6-methoxypyridin-3-yl)amino]pyridine-2-carbonitrile] fall in the same range of EC50: 1000 to 5000 nM for the first, 1000 to 5000 nM for the second.

First: COc1cc(Cl)cc(Nc2cc(C#N)nc(Nc3ccc4cc[nH]c4c3)c2)c1 [Compound 112, 4-[(3-chloro-5-methoxyphenyl)amino]-6-[(1H-indol-6-yl)amino]pyridine-2-carbonitrile]
Second: COc1cc(Nc2cc(C#N)nc(Nc3ccc4cc[nH]c4c3)c2)cnc1Cl [Compound 128, 4-[(6-chloro-5-methoxypyridin-3-yl)amino]-6-[(1H-indol-6-yl)amino]pyridine-2-carbonitrile]
The EC50 of the first is lower: 200 to 1000 nM for the first, 1000 to 5000 nM for the second. The first is the more potent here.

Compared with CC(C)CN1CCN(c2cc(C#N)nc(Nc3ccc4cc[nH]c4c3)c2)CC1 [Compound 113, 6-[(1H-indol-6-yl)amino]-4-[4-(2-methylpropyl)piperazin-1-yl]pyridine-2-carbonitrile], N#Cc1cc(N2CCN(CC(F)(F)F)CC2)cc(Nc2ccc3cc[nH]c3c2)n1 [Compound 120, 6-[(1H-indol-6-yl)amino]-4-[4-(2,2,2-trifluoroethyl)piperazin-1-yl]pyridine-2-carbonitrile] is higher in EC50: 1000 to 5000 nM for the first, 5000 to 100000 nM for the second. The first is the more potent here.

First: N#Cc1cc(N2CCOCC2)cc(Nc2ccc3cc[nH]c3c2)n1 [Compound 114, 6-[(1H-indol-6-yl)amino]-4-(morpholin-4-yl)pyridine-2-carbonitrile]
Second: N#Cc1cc(N2CCC(C(F)(F)F)CC2)cc(Nc2ccc3cc[nH]c3c2)n1 [Compound 118, 6-[(1H-indol-6-yl)amino]-4-[4-(trifluoromethyl)piperidin-1-yl]pyridine-2-carbonitrile]
The EC50 of the first is higher: 5000 to 100000 nM for the first, 1000 to 5000 nM for the second.

Compared with CC(C)(C)c1cncc(Nc2cc(C#N)nc(Nc3ccc4cc[nH]c4c3)c2)c1 [Compound 115, 4-[(5-tert-butylpyridin-3-yl)amino]-6-[(1H-indol-6-yl)amino]pyridine-2-carbonitrile], CC(C)c1cncc(Nc2cc(C#N)nc(Nc3ccc4cc[nH]c4c3)c2)c1 [Compound 124, 6-[(1H-indol-6-yl)amino]-4-{[5-(propan-2-yl)pyridin-3-yl]amino}pyridine-2-carbonitrile] is lower in EC50: 1000 to 5000 nM for the first, 200 to 1000 nM for the second. The second is the more potent here.

First: N#Cc1cc(Nc2ccc3c(c2)OC(F)(F)O3)cc(Nc2ccc3cc[nH]c3c2)n1 [Compound 117, 4-[(2,2-difluoro-2H-1,3-benzodioxol-5-yl)amino]-6-[(1H-indol-6-yl)amino]pyridine-2-carbonitrile]
Second: CNC(=O)c1ccc(Nc2cc(C#N)nc(Nc3ccc4cc[nH]c4c3)c2)cc1F [Compound 132, 4-({2-cyano-6-[(1H-indol-6-yl)amino]pyridin-4-yl}amino)-2-fluoro-N-methylbenzamide]
The EC50 of the first is lower: 200 to 1000 nM for the first, 5000 to 100000 nM for the second. The first is the more potent here.

N#Cc1cc(N2CCC(Oc3ccccc3)CC2)cc(Nc2ccc3cc[nH]c3c2)n1 [Compound 119, 6-[(1H-indol-6-yl)amino]-4-(4-phenoxypiperidin-1-yl)pyridine-2-carbonitrile] and N#Cc1cc(Nc2ccc(OC(F)F)nc2)cc(Nc2ccc3cc[nH]c3c2)n1 [Compound 126, 4-{[6-(difluoromethoxy)pyridin-3-yl]amino}-6-[(1H-indol-6-yl)amino]pyridine-2-carbonitrile] fall in the same range of EC50: 200 to 1000 nM for the first, 200 to 1000 nM for the second.

First: CC1(C)C(=O)Nc2cc(Nc3cc(C#N)nc(Nc4ccc5cc[nH]c5c4)c3)ccc21 [Compound 122, 4-[(3,3-dimethyl-2-oxo-2,3-dihydro-1H-indol-6-yl)amino]-6-[(1H-indol-6-yl)amino]pyridine-2-carbonitrile]
Second: N#Cc1cc(Nc2ccc(C(F)(F)F)nc2)cc(Nc2ccc3cc[nH]c3c2)n1 [Compound 130, 6-[(1H-indol-6-yl)amino]-4-{[6-(trifluoromethyl)pyridin-3-yl]amino}pyridine-2-carbonitrile]
The EC50 of the first is higher: 1000 to 5000 nM for the first, 200 to 1000 nM for the second. The second is the more potent here.

N#Cc1cc(Nc2ccc(OC(F)(F)F)nc2)cc(Nc2ccc3cc[nH]c3c2)n1 [Compound 125, 6-[(1H-indol-6-yl)amino]-4-{[6-(trifluoromethoxy)pyridin-3-yl]amino}pyridine-2-carbonitrile] and N#Cc1cc(Nc2ccc(OCC(F)(F)F)nc2)cc(Nc2ccc3cc[nH]c3c2)n1 [Compound 127, 6-[(1H-indol-6-yl)amino]-4-{[6-(2,2,2-trifluoroethoxy)pyridin-3-yl]amino}pyridine-2-carbonitrile] fall in the same range of EC50: 200 to 1000 nM for the first, 200 to 1000 nM for the second.

Same assay, conditions: 15 μM 2'3'cGAMP, 24 h, numeric bound

Cc1ccc(Nc2cc(C#N)nc(Nc3ccc4cc[nH]c4c3)c2)cn1 [Compound 102, 6-[(1H-indol-6-yl)amino]-4-[(6-methylpyridin-3-yl)amino]pyridine-2-carbonitrile] and CN1CCN(c2cc(C#N)nc(Nc3ccc4cc[nH]c4c3)c2)CC1 [Compound 121, 6-((1H-indol-6-yl)amino)-4-(4-methylpiperazin-1-yl)picolinonitrile] cannot be ordered by EC50: over 30000 nM for the first, over 30000 nM for the second.

COC1CCN(c2cc(C#N)nc(Nc3ccc4cc[nH]c4c3)c2)CC1 [Compound 103, 6-[(1H-indol-6-yl)amino]-4-(4-methoxypiperidin-1-yl)pyridine-2-carbonitrile] and N#Cc1cc(N2CCC(F)(F)CC2)cc(Nc2ccc3cc[nH]c3c2)n1 [Compound 106, 4-(4,4-difluoropiperidin-1-yl)-6-[(1H-indol-6-yl)amino]pyridine-2-carbonitrile] cannot be ordered by EC50: over 30000 nM for the first, over 30000 nM for the second.
